Measurements from PMC6033896, “Discovery of Mcl-1 inhibitors from integrated high throughput and virtual screening” (Scientific Reports, 2018).

Molecular target: T1, 15N-labeled Mcl-1 (Homo sapiens, UniProt Q07820)
T1 construct: human Mcl-1 (residues 171–323); made in house; host or cells: E. coli (bacteria grown on M9 minimal medium with 15N ammonium sulphate)
Experiment: 1H,15N HSQC NMR chemical shift perturbation
Conditions: direct binding to Mcl-1
Description: NMR studies were performed as previously described. In brief, the ^15N-labeled Mcl-1 protein was prepared and purified using the same protocol as for unlabelled protein with the exception that the bacteria were grown on M9 minimal media supported with 1 g/L of (^15NH4)2SO4. Protein samples were prepared in a 20 mM sodium phosphate, 150 mM NaCl and 1 mM DTT solution at pH 7 in 7% D2O. The binding mode of compounds has been characterized with a solution of uniformly ^15N-labeled Mcl-1 (75 μM) in the absence and presence of added compounds (in 1 or 6% final DMSO) with the indicated molar ratio concentrations. The total volume of each sample was 150 μL and samples were prepared in Bruker tubes (Bruker, # Z117724). All Spectra were acquired at 30 °C on a Bruker 600 MHz NMR spectrometer equipped with a cryogenic probe, processed using Bruker TopSpin and rNMR, and were analysed with Sparky. Plots of chemical shift changes were calculated as ((Δ^1H ppm)2 + (0.2(Δ^15N ppm))2)0.5 of Mcl-1 amide upon addition of compound. The absence of a bar in a chemical shift plot indicates no chemical shift difference or the presence of a proline or residue that is overlapped or not assigned. The cutoff threshold for determining the significance of the chemical shift was based on one standard deviation above the average of all chemical shifts.

T1 sequence (Q07820 171-323): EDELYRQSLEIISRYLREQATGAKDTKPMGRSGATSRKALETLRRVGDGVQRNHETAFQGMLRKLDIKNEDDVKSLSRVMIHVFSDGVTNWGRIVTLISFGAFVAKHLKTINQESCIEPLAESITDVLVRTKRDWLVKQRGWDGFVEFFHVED

SMILES: O=C(CSc1nnc(-c2ccco2)c(-c2ccco2)n1)Nc1ccccc1 [Compound 19]
- chemical shift perturbations of Mcl-1 amides (HSQC NMR): concentration-dependent perturbations
